pEC50: −log10 of the molar value. Read-outs that look alike come from different tables or passages of the source.
Assays:
17β-HSD10 [1] = target: T1, 17β-HSD10 (Homo sapiens, UniProt Q99714); experiment: 17β-HSD10 (ABAD) enzyme inhibition assay, NADH oxidation read at 340 nm (primary screen and dose response); assay type: biochemical; settings: for pEC50 / Max. Effect (%) / Hill Slope / Max. Fit / Min. Fit: recombinant 17βHSD10 enzyme assay; for Hill Slope / Max. Fit / Min. Fit: curve fit
T1 construct: Histev (histidine tag with TEV site) (N, cleaved yes); made in house; host or cells: E. coli BL21-CodonPlus
T1 sequence (Q99714 1-261): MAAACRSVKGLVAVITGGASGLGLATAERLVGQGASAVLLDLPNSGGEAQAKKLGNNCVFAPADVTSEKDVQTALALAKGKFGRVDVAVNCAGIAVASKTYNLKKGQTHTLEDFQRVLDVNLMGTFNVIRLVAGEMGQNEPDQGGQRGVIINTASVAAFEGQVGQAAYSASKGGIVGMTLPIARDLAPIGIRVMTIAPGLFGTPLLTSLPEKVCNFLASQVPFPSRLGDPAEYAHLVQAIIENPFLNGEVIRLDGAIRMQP
In short: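 Screening used a 35 min room-temperature endpoint A340 read after compound (10 μM) and enzyme (2.5 nM, E. coli-expressed, His-tag removed) preincubated 15 min, then 100 μM NADH plus acetoacetyl-CoA added. Dose-response runs tracked absorbance kinetically 45 min; buffer pH 7.4 Tris with BSA, DTT.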

17β-HSD10 [2] = target: T1, 17β-HSD10; experiment: Mechanism of action against the substrates NADH and AcetoAcetyl CoA; assay type: biochemical; settings: for mode of binding with respect to NADH: AcAc in excess at 800 μM; for mode of binding with respect to AcAc: excess of 100 μM NADH
Protocol: To determine the kinetics for acetoacetyl-CoA and the effect of 17β-HSD10 concentration upon reaction rate, a matrix titration experiment was set up. Previously determined conditions were used with a fixed concentration of 700 μM NADH and a starting concentration of up to 200 μM acetoacetyl-CoA. Doubling dilutions of acetoacetyl-CoA were then coupled with doubling dilutions of 17β-HSD10, which started with a maximum concentration of 40 nM. Data collected from the experiment was analysed using a standard template, from which reaction progress curves were analysed to calculate initial velocities and obtain Km values using the Michaelis-Menten equation (XLFit, ID Business Solutions).
To determine the kinetics for NADH and the effect of 17β-HSD10 concentration upon reaction rate a matrix titration experiment was set up. Previously determined conditions (Aitken et al. 2017, supra) were used, 120 μM acetoacetate and a starting concentration of up to 1000 μM NADH. Doubling dilutions of NADH were then coupled with doubling dilutions of 17β-HSD10, which started with a maximum concentration of 40 nM. Data were analysed as described previously (Aitken et al. 2017, supra).
Two compounds, ESC1002033 and ESC1002082, representative of the two different clusters were investigated for their mechanism of action against the substrates, NADH and AcetoAcetyl CoA (AcAc). The ESC inhibitors were tested as 12-point 1 in 1.5 dilution series with a maximal concentration of 2.5 μM.

[3] = target: T2, 17β-HSD10 in HEK293 mts17β-HSD10 cells (Homo sapiens, UniProt Q99714); experiment: (-)-CHANA enzyme activity cell based assay; settings: cellular 17β-HSD10, HEK 293 cells, (-)-CHANA probe
T2 construct: expressed in transfected cells; host or cells: HEK293
T2 sequence (Q99714 1-261): T1 sequence (Q99714 1-261)
Protocol: HEK293 mts17β-HSD10 cells were seeded at a density of 10,000 cells per well (100 μL, 96 well black plates) in phenol-red free media (10% FBS, 1 mM sodium pyruvate, 100 units penicillin, 0.1 mg/mL streptomycin and 2 mM L-glutamine). After 24 hours the media was removed from the cells and replaced with fresh media containing varying concentrations of compound (100 μM-0.098 μM). The fluorogenic probe (-)-CHANA was then added to each well to give a final assay concentration of 20 μM. Fluorescence was immediately measured using a FLUOstar Optima microplate reader (excitation=380 nm, emission=520 nm, orbital averaging=3 mm) and the initial reaction monitored for 3-4 hours. IC50 was calculated from the control-subtracted triplicates using non-linear regression (four parameters) of GraphPad Prism 5 software. Final IC50 and SEM value was obtained as a mean of at least 3 independent measurements.
REF: (-)-CHANA, a Fluorogenic Probe for Detecting Amyloid Binding Alcohol Dehydrogenase HSD10 Activity in Living Cells Kirsty E. A. Muirhead, Mary Froemming, Xiaoguang Li, Kamil Musilek, Stuart J. Conway, Dalibor Sames, and Frank J. Gunn-Moore ACS Chemical Biology 2010 5 (12), 1105-1114DOI: 10.1021/cb100199m) to monitor the oxidative activity of 17β-HSD10 in living cells. […]

[4] = Mouse hepatocyte stability; assay type: in vitro ADME; design: k: unit not given here; settings: for Heps Category: hepatocyte metabolism category, mouse; for Cl / half-life / k: mouse hepatocytes; for Cl: clearance; for k: k=absorption rate constant (so in the source)
Excerpt: (§1) Table 5: Initial mouse hepatocyte stability and plasma protein binding experiments were undertaken on some of the best exemplars from the representative series with AG18051 a previously published 17β-HSD10 inhibitor (C. R. Kissinger et al., J. Mol. Biol., 342 (2004), p. 943; Lim, Y.-A., Grimm, A., Giese, M. PLoS ONE (2011), 6, e28887.) Ref: shown for comparison. Where k=absorption rate constant Cl=clearance, T1/2=half-life, Heps=hepatocyte metabolism, PPB=plasma protein binding.

[5] = Mouse plasma protein binding; assay type: in vitro ADME
Excerpt: as §1

17β-HSD10 [6] = target: T1, 17β-HSD10; experiment: Thermal shift analysis; assay type: binding; settings: 20 μM compound, 1 mM NADH
Protocol: Solutions containing compound at two concentrations (25 μM and 100 μM) added to assay buffer (50 mM Hepes, 0.5 M NaCl, pH 8.2, SYPRO orange 20 X, ±1 mM NADH) were plated in triplicate (25 μl per well) in MicroAmp 96-well plates (Thermo Fisher: 4346907). The plates were then sealed with optical grade sealing film (Thermo Fisher: 4311971) and loaded into a ViiA 7 RT-PCR machine ((Thermo Fisher: 4453534) (ramp speed 0.015° C./sec, 25-95° C.)). Data was exported to GraphPad PRISM and Tm values were calculated using the Boltzmann sigmoidal curve fit equation.
The ΔTm for one compound from each series is presented in FIG. 9 with a representative derivative plot of ESC1002033 and ESC1002082 in FIG. 9a.

mtsABAD HEK293 cells [7] = experiment: Lactate dehydrogenase (LDH) cytotoxicity assay; assay type: cell-based, human; settings: 50 μM compound, listed as ESC1002204-01
mtsABAD HEK293 cells [8] = experiment: Alamar Blue cell viability assay; assay type: cell-based, human; settings: 50 μM compound, listed as ESC1002204-01
[9] = Table 5, read-out: Mean ABAD pIC50 (converted)

pEC50 (17β-HSD10 [1])	Max. Effect (%) (17β-HSD10 [1])	Hill Slope (17β-HSD10 [1])	Max. Fit (17β-HSD10 [1])	Min. Fit (17β-HSD10 [1])	IC50 (17β-HSD10 [1]; [9]) [nM]	Heps Category [4]	Cl [4] [ml/minute/g liver]	half-life [4] [min]	k [4]	Mouse PPB (% free) [5] [% free]	Structure (SMILES)	other results
6.10	96	1.1	98	0							COc1ccc(-c2ccccc2C2CCCN2C(=O)c2sccc2C)cn1 (racemic) [ESC1002082, [2-[2-(6-methoxy-3-pyridyl)phenyl]pyrrolidin-1-yl]-(3-methyl-2-thienyl)methanone]	17β-HSD10 pIC50 (17β-HSD10 [1]; 17β-HSD10 dose response / inhibition assay): 6.1; IC50 (17β-HSD10 [1]; primary screening, resynthesized HTS hit compounds, read-out: ABAD plC50 (converted)): 794 nM; mode of binding with respect to NADH (17β-HSD10 [2]): non-competitively; mode of binding with respect to AcAc (17β-HSD10 [2]): competitively
7.70	95	1	93	−2	18.6	High	105.8	3.14	0.22		O=C(c1sccc1Cl)N1CCC[C@H]1c1ccccc1-c1cccc(O)c1 (single isomer, unassigned) [ESC1002755]	fold improvement in activity / potency (17β-HSD10 [1]; relative to the parent compound of the sentence): 40 fold; pEC50 [3]: 7.55
6.94	94	0.89	95	−10	105	High	62.4	5.33	0.13		COc1cccc(-c2ccccc2[C@@H]2CCCN2C(=O)c2[nH]ncc2Cl)c1 (single isomer, unassigned) [ESC1002757]	
6.72	94	1	93	−3	170	High	71.5	4.65	0.15		Cc1ccsc1C(=O)N1CCC[C@H]1c1ccccc1-c1cccc(Cl)c1 (single isomer, unassigned) [ESC1002769]	
6.81	97	1.1	96	−3	110	High	21.9	15.2	0.046	9.9	O=C(c1[nH]ncc1Cl)N1CCC[C@H]1c1ccccc1-c1cccc(O)c1 (single isomer, unassigned) [ESC1002799]	
7.39	102	1.1	98	−3	34.7	High	83.1	4	0.17	3.4	O=C(c1sccc1Cl)N1CCC[C@H]1c1ccccc1-c1cc(O)ccc1F (single isomer, unassigned) [ESC1002842]	
6.40	97	1.2	98	0	398	High	54	6.16	0.11		Cc1ncc(CN(C)c2cccc(N(CC(C)C)C(=O)c3ccccc3F)c2)[nH]1 [ESC1002204]	17β-HSD10 / ABAD activity in words (SAR discussion) (17β-HSD10 [1]): only slightly reduced ABAD inhibition levels; LDH % Toxicity (50 μM Dose) (mtsABAD HEK293 cells [7]): 5.048%; Alamar Blue % Viability (50 μM Dose) (mtsABAD HEK293 cells [8]): 88.836%
6.86	97	1.2	96	17		High	8.6		0.018	8.9	CC(C)CN(C(=O)c1c(F)cccc1F)c1cccc(N(C)Cc2c[nH]cn2)c1 [ESC1002456, 2,6-difluoro-N-[3-[1H-imidazol-4-ylmethyl(methyl)amino]phenyl]-N-isobutyl-benzamide]	Mean ABAD pIC50 (17β-HSD10 [1]; Table 5): 6.86
6.57	102	1.3	101	10		Mod	5.8		0.012	7.6	Cc1ccc(C(=O)N(CC(C)C)c2cccc(N(C)Cc3c[nH]cn3)c2)c(F)c1 [ESC1002575, 2-fluoro-N-[3-[1H-imidazol-4-ylmethyl(methyl)amino]phenyl]-N-isobutyl-4-methyl-benzam]	Mean ABAD pIC50 (17β-HSD10 [1]; Table 5): 6.57
6.40	100	1.4	96	4	398	Mod	7.2	46.2	0.02		Cc1ccsc1C(=O)N(CC(C)C)c1cccc(N(C)Cc2c[nH]cn2)c1 [ESC1002597]	

Structure (SMILES)	pEC50 (17β-HSD10 [1])	Max. Effect (%) (17β-HSD10 [1])	Hill Slope (17β-HSD10 [1])	Max. Fit (17β-HSD10 [1])	Min. Fit (17β-HSD10 [1])	IC50 (17β-HSD10 [1]; [9]) [nM]	Heps Category [4]	Cl [4] [ml/minute/g liver]	half-life [4] [min]	k [4]	Mouse PPB (% free) [5] [% free]	other results
CC(C)CN(C(=O)c1ccccc1F)c1cccc(N(C)Cc2cnc[nH]2)c1 [ESC1002033, 2-fluoro-N-[3-[1H-imidazol-5-ylmethyl(methyl)amino]phenyl]-N-isobutyl-benzamide]	6.70	99	1	99	−3		Mod	6.2		0.013		Mean ABAD pIC50 (17β-HSD10 [1]; Table 5): 6.7; ΔTm at 20 µM (17β-HSD10 [6]): 6.75 °C; mode of binding with respect to NADH (17β-HSD10 [2]): non-competitively; mode of binding with respect to AcAc (17β-HSD10 [2]): competitively

Source: patent publication US20260132123A1, “ABAD INHIBITOR COMPOUNDS” (UNIVERSITY COURT OF THE UNIVERSITY OF ST ANDREWS, priority 2021, published 2026)
